The results in this text go back to patent publication US20050014181A1, “Methods and compositions for the assessment of polymer assembly” (priority 2003, published 2005).

Assay [1] has as its system SMC-mediated collagen fibrillogenesis. Kind of assay: Treatment effects on SMC-mediated collagen fibrillogenesis (FITC-labeled collagen assembly assay, fluorescence plate reader). It is filed as cell-based, mouse. The note with it: for % fibrillogenesis of no treatment control: 1 (unit uncertain) of compound (smallest concentration used), green fluorescence normalized by cell density. Details: % fibrillogenesis of no treatment control / effect of treatment on SMC-assisted collagen fibrillogenesis (FIG. 5A-B) / effect of treatment on collagen fibrils (FIG. 5C): unit of the concentration uncertain. How it is done: (§1) In one embodiment, the assay consists of adding a solution of FITC-labeled protein to cultured cells in the presence or absence of various treatments, then returning the cells to the incubator (37° C., 5% CO2) for various periods of time. Supramolecular protein assembly can be followed in time as a gain of fluorescence using a fluorescence plate reader, or by confocal microscopy with live cells or after fixation of cells. Specifically, for the development of this assay, SMC were used that had been plated into black clear-bottomed 96-well tissue culture-treated plates (Fisher) at 10,000 cells per well in 100 µL of DMEM+10% FBS 2 days prior to performing the assay.
After 24 h, the culture medium was changed to DMEM without FBS to promote cell quiescence, then SMC were returned to the incubator (37° C., 5% CO2) for an additional 24 h. Before the start of the assay, the culture medium was aspirated from each well and replaced with 100 µL of FITC-labeled collagen, BSA, or denatured collagen in DMEM without FBS, final concentration between […]. The cells were returned to the incubator for time periods up to 24 h.
At the end of the assay, the culture medium was aspirated and replaced with 10% buffered formalin (Fisher) for 10 min. For normalization of results, cell nuclei were counterstained using HOECHST [500 ng/mL in phosphate-buffered saline (PBS), pH 7.4] for 5 min. The wells subsequently were washed two times with PBS, then 100 µL of PBS were added to each well and the intensity of the fluorescence was measured with a fluorescence plate reader (CytoFluor® series 4000, PerSeptive Biosystems) using the following settings for protein assembly: ex=480 nm, em=530 nm, gain 85, and ex=360 nm, em=460 nm, gain 80 for cell nuclei.
In each quantitative assay, twelve wells of a 96-well plate were used for each condition. Average background readings were obtained from wells without cells or without labeled collagen monomer solution (six each) to ensure that the assay measured only the cell-assisted protein assembly.
To assess the ability of our assay to detect the effects of treatments that interfere with cell cytoskeleton, and therefore may affect fibrillogenesis, SMC were pretreated with […] of cytochalasin D, a chemical that disrupts organization of the actin cytoskeleton, for 30 min prior to the assay. The same concentrations were maintained throughout the assay. Retinoic acid, which has the opposite effect, stiffening SMC cytoskeleton, was added at […] of final concentrations.
To test whether the assay can detect formation of fibrils by incorporating de novo synthesized endogenous collagen, effect of treatments that should directly affect this process were investigated. Ascorbic acid, which enhances the triple helix organization of de novo synthesized collagen, was added at 5, 10, and 50 µM of final concentrations to the SMC culture medium for 24 h prior to the assay and maintained throughout the assay. Homocysteine thiolactone, which is a lysyl oxidase inhibitor and thus impairs the higher organization of collagen, was used at 5, 10, 50, 100, and 500 µM of final concentration in the SMC culture media. To assess the potential effects of these treatments, fibrillogenesis was calculated as the percentage of fibrillogenesis mediated by nontreated SMC.

A further assay relates to mouse aortic SMC. Kind of assay: Protein assembly assay: FITC-labeled protein added to mouse aortic SMC (plate reader / fluorescence microscopy). It is filed as cell-based. The note with it: labeled protein incubated with SMC for 24 h. How it is done: as §1, with “assay. […]” for “assay.”
At the end of the assay, the culture medium was aspirated and replaced with 10% buffered formalin (Fisher) for 10 min. […] The wells subsequently were washed two times with PBS, then 100 µL of PBS were added to each well and the intensity of the fluorescence was measured with a fluorescence plate reader (CytoFluor® series 4000, PerSeptive Biosystems) using the following settings for protein assembly: ex=480 nm, em=530 nm, gain 85, and ex=360 nm, em=460 nm, gain 80 for cell nuclei.
In each quantitative assay, twelve wells of a 96-well plate were used for each condition. […]

For a further assay, the system named is SMC. Description: SDS-PAGE / phosphoimager detection of FITC-labeled protein recovered after incubation with SMC. Type of assay: cell-based. The note with it: 50 or 100 mg/mL, 24 h with SMC in culture. How it is done: SMC were plated in 6-well tissue culture plates at a density of 500,000 cells per well. After 24 h, the media was aspirated and replaced with 1 mL of serum-free media containing 50 or 100 µg/mL of FITC-labeled BSA, collagen, or denatured collagen and placed back in a 37° C., 5% CO2 incubator for 24 h for assembly. The SMC cultured with labeled proteins then were rinsed twice with PBS, after which cell extracts were taken using […] of acidified (0.02M of acetic acid) lysis buffer. Samples […] from each condition before and after culturing with SMC were run on an 1.5-mm SDS-PAGE gel (Biorad apparatus) for 2 h at 150 V. FITC-labeled protein bands were imaged using a phosphoimager (Storm 860, Molecular Dynamics) with the ability to detect green fluorescence.

In the case of `O=C1O[C@H]([C@@H](O)CO)C(O)=C1O` [ascorbic acid, Ascorbic acid], in assay [1] (5, 10, 50 (unit uncertain), added 24 h prior to the assay and maintained throughout), the “effect of treatment on collagen fibrils (FIG. 5C)” value is listed as “moderate, yet statistically significant, enhancement of collagen fibrils”.
Consider `C=C1[C@@H](C)[C@H]2[C@H](Cc3ccccc3)NC(=O)[C@]23[C@H](OC(C)=O)/C=C/[C@@](C)(O)C(=O)[C@@H](C)C/C=C/[C@H]3[C@@H]1O` [cytochalasin D, Cytochalasin D], for which the “% fibrillogenesis of no treatment control” value in assay [1] turned out to be 12.1±1.0%. Moreover, the “effect of treatment on SMC-assisted collagen fibrillogenesis (FIG. 5A-B)” value in assay [1] (increasing concentrations (1, 5, 10 (unit uncertain))) was “impairs the ability of SMC to facilitate fibrillogenesis”.
Consider `NC1CCSC1=O` (stereo not shown) [homocysteine thiolactone, Homocysteine thiolactone], for which the “effect on SMC-mediated collagen assembly” value in assay [1] (up to concentrations twice the IC50 value (5-500 M), data not shown) is “no effects”.
For `CC1=C(/C=C/C(C)=C/C=C/C(C)=C/C(=O)O)C(C)(C)CCC1` [retinoic acid, Retinoic acid], the “% fibrillogenesis of no treatment control” value in assay [1] amounted to 59.5±9.4%.
“labeled BSA: FITC-labeled bovine serum albumin”: the “supramolecular assembly seen by fluorescence microscopy” value in the assay with mouse aortic SMC was “No assembly was detected”. Besides, the “association of labeled protein with SMC monolayer (SDS-PAGE)” value in the assay on SMC is recorded as “neither BSA nor denatured collagen was associated with cells”.
